Measured values as given in patent US20120164104A1, “Composition and Methods of Treating Viral Infections and Viral Induced Tumors” (Chimerix, Inc., priority 2009, published 2012).

Columns and labels:
SCaBER = assay: Cell proliferation assay (MTS or SRB), SCaBER; assay type: cell-based; settings: Homo sapiens, 72 h, Bladder, 3 days, read-out: IC50 (cell growth inhibition)
Procedure: (§1) In vitro cell proliferation assays were performed using a 96-well plate based MTSassay (CellTiter 96° AqueousOne Solution Cell Proliferation Assay, Promega) or SRB (Sulforhodamine-B) assay (1-3). Briefly, cells were plated in 100 μl medium on day 0 in 96-well microtiter plates (Falcon #3072). On day 1, 10 μl of serial dilutions of each compound (Nine 1:2 dilutions with a starting concentration of 100 μM; in some cases, a starting concentration of 400 μM (CMX001 or Cidofovir) or 1 μM (some standard agents)) were added in triplicates to the plates. For standard agents using DMSO as solvent, serial dilutions of DMSO with a starting concentration of 0.5% were also included as a vehicle control.
(§2) After incubation for 3 days at 37° C. in a humidified incubator, viable cells were measured either by MTS or SRB assay. For MTS assay, 20 μl of a 20:1 mixture of (3-(4,5-dimethylthiazol-2-yl)-5-(3-carboxymethoxyphenyl)-2-(4-sulfophenyl)-2H-tetrazolium, inner salt (MTS, 2 mg/ml) and an electron coupling reagent, phenazine methosulfate (PMS, 0.92 mg/ml in DPBS), was added to each well and incubated for 3 hours at 37° C. Absorbance was measured using a BioTek Synergy™ HT Multiple Detection microplate reader at 490 nm. For SRB assay, cells were fixed in situ with 50 μL of cold trichloroacetic acid (TCA, final concentration at 10% w/v) for 60 minutes. Cells were then washed 5 times with H2O and air-dried.
(§3) Next, cells were stained with 20 μL of 0.2% SRB in 1% acetic acid and incubated at room temperature for 30 minutes and unbound SRB was removed by washing 5 times with 1% acetic acid and air-dried. Finally, bound SRB stain was solubilized in 50 μL of 50 μM Tris buffer before taking an optical density measurement at 570 nm using the BioTek microplate reader. The growth inhibition data were expressed as the percentage of cell survival calculated from the background corrected absorbance. The surviving fraction of cells was determined by dividing the mean absorbance values of the test agent-treated samples by the mean absorbance values of untreated control. […]

PC-3 = assay: Cell proliferation assay (MTS or SRB), PC-3; assay type: cell-based; settings: Homo sapiens, 72 h; PC-3, Prostate, 3 days; read-out: IC50 (cell growth inhibition)
Procedure: as §1, §2, §3

Caki-2 = assay: Cell proliferation assay (MTS or SRB), Caki-2; assay type: cell-based; settings: Homo sapiens, 72 h; Caki-2, Kidney, 3 days; read-out: IC50 (cell growth inhibition)
Procedure: as §1, §2, §3

PANC-1 = assay: Cell proliferation assay (MTS or SRB), PANC-1; assay type: cell-based; settings: Homo sapiens, 72 h; PANC-1, Pancreatic, 3 days; read-out: IC50 (cell growth inhibition)
Procedure: as §1, §2, §3

H460 = assay: Cell proliferation assay (MTS or SRB), H460; assay type: cell-based; settings: Homo sapiens, NCI-H460, 72 h; H460, Lung, 3 days; read-out: IC50 (cell growth inhibition)
Procedure: as §1, §2, §3

SK-MEL-2 = assay: Cell proliferation assay (MTS or SRB), SK-MEL-2; assay type: cell-based; settings: Homo sapiens, 72 h; SK-MEL-2, Skin (melanoma), 3 days; read-out: IC50 (cell growth inhibition)
Procedure: as §1, §2
(§4) Next, cells were stained with 20 μL of 0.2% SRB in 1% acetic acid and incubated at room temperature for 30 minutes and unbound SRB was removed by washing 5 times with 1% acetic acid and air-dried. Finally, bound SRB stain was solubilized in 50 μL of 50 μM Tris buffer before taking an optical density measurement at 570 nm using the BioTek microplate reader. The growth inhibition data were expressed as the percentage of cell survival calculated from the background corrected absorbance. The surviving fraction of cells was determined by dividing the mean absorbance values of the test agent-treated samples by the mean absorbance values of untreated control.
(§5) Raw data were acquired using a BioTek Synergy™ HT Multiple Detection microplate reader and imported into Microsoft Excel for analysis. The average signal of each treatment was calculated from the triplicates after subtracting the blank signals. The percentage survival values were calculated using the following formula: % survival=(average signal of the drug treatment/average signal of untreated controls)×100. The data were finally imported into the Prism 4 software (GraphPad Software, San Diego, Calif.) to generate the dose-activity curves using non-linear regression curve fit and to calculate the IC50 values.

SiHa = assay: Cell proliferation assay (MTS or SRB), SiHa; assay type: cell-based, human; settings: Homo sapiens, 72 h, Cervical, 3 days, read-out: IC50 (cell growth inhibition)
Procedure: as §1, §2, §3

A549 = assay: Cell proliferation assay (MTS or SRB), A549; assay type: cell-based; settings: Homo sapiens, 72 h; A549, Lung, 3 days; read-out: IC50 (cell growth inhibition)
Procedure: as §1, §2, §3

MIA PaCa-2 = assay: Cell proliferation assay (MTS or SRB), MIA PaCa-2; assay type: cell-based; settings: Homo sapiens, 72 h; MIA PaCa-2, Pancreatic, 3 days; read-out: IC50 (cell growth inhibition)
Procedure: as §1, §2, §3

Caki-1 = assay: Cell proliferation assay (MTS or SRB), Caki-1; assay type: cell-based; settings: Homo sapiens, 72 h; Caki-1, Kidney, 3 days; read-out: IC50 (cell growth inhibition)
Procedure: as §1, §2, §3

MCF-7 = assay: Cell proliferation assay (MTS or SRB), MCF-7; assay type: cell-based; settings: Homo sapiens, MCF7, 72 h; MCF-7, Breast, 3 days; read-out: IC50 (cell growth inhibition)
Procedure: as §1, §2, §3

DU 145 = assay: Cell proliferation assay (MTS or SRB), DU 145; assay type: cell-based; settings: Homo sapiens, 72 h; DU 145, Prostate, 3 days; read-out: IC50 (cell growth inhibition)
Procedure: as §1, §2, §3

A2058 = assay: Cell proliferation assay (MTS or SRB), A2058; assay type: cell-based; settings: Homo sapiens, 72 h; A2058, Skin (melanoma), 3 days; read-out: IC50 (cell growth inhibition)
Procedure: as §1, §2, §4, §5

SK-OV-3 = assay: Cell proliferation assay (MTS or SRB), SK-OV-3; assay type: cell-based, human; settings: Homo sapiens, 72 h; SK-OV-3, Ovarian, 3 days; read-out: IC50 (cell growth inhibition)
Procedure: as §1, §2, §3

Hep G2 = assay: Cell proliferation assay (MTS or SRB), Hep G2; assay type: cell-based; settings: Homo sapiens, HepG2, 72 h; Hep G2, Liver, 3 days; read-out: IC50 (cell growth inhibition)
Procedure: as §1, §2, §3

HT-29 = assay: Cell proliferation assay (MTS or SRB), HT-29; assay type: cell-based, human; settings: Homo sapiens, 72 h; HT-29, Colon, 3 days; read-out: IC50 (cell growth inhibition)
Procedure: as §1, §2, §3

OVCAR-3 = assay: Cell proliferation assay (MTS or SRB), OVCAR-3; assay type: cell-based, human; settings: Homo sapiens, 72 h; OVCAR-3, Ovarian, 3 days; read-out: IC50 (cell growth inhibition)
Procedure: as §1, §2, §3

THLE-3 = assay: Cell proliferation assay (MTS or SRB), THLE-3; assay type: cell-based; settings: Homo sapiens, THLE3, 72 h; THLE-3, Liver (Normal), SV40 large T immortalized, 3 days; read-out: IC50 (cell growth inhibition)
Procedure: as §1
After incubation for 3 days at 37° C. in a humidified incubator, viable cells were measured either by MTS or SRB assay. […]
as §3, with “absorbance.” for “absorbance. The surviving fraction of cells was determined by dividing the mean absorbance values of the test agent-treated samples by the mean absorbance values of untreated control.”

SW 780 = assay: Cell proliferation assay (MTS or SRB), SW 780; assay type: cell-based; settings: Homo sapiens, SW780, 72 h; SW 780, Bladder, 3 days; read-out: IC50 (cell growth inhibition)
Procedure: as §1, §2, §3

HCT-116 = assay: Cell proliferation assay (MTS or SRB), HCT-116; assay type: cell-based, human; settings: Homo sapiens, 72 h; HCT-116, Colon, 3 days; read-out: IC50 (cell growth inhibition)
Procedure: as §1, §2, §3

| SMILES | IC50 (SCaBER) [µM] | IC50 (PC-3) [µM] | IC50 (Caki-2) [µM] | IC50 (PANC-1) [µM] | IC50 (H460) [µM] | IC50 (SK-MEL-2) [µM] | IC50 (SiHa) [µM] | IC50 (A549) [µM] | IC50 (MIA PaCa-2) [µM] | IC50 (Caki-1) [µM] | IC50 (MCF-7) [µM] | IC50 (DU 145) [µM] | IC50 (A2058) [µM] | IC50 (SK-OV-3) [µM] | IC50 (Hep G2) [µM] | IC50 (HT-29) [µM] | IC50 (OVCAR-3) [µM] | IC50 (THLE-3) [µM] | IC50 (SW 780) [µM] | IC50 (HCT-116) [µM] |
| --- | --- | --- | --- | --- | --- | --- | --- | --- | --- | --- | --- | --- | --- | --- | --- | --- | --- | --- | --- | --- |
| Nc1ccn(C[C@@H](CO)OCP(=O)(O)O)c(=O)n1 [cidofovir] | > 100 | > 100 | > 100 | > 100 | > 100 | > 100 | 100 | > 100 | > 100 | > 100 | > 100 | > 100 | > 100 | > 100 | > 100 | > 100 | > 100 | > 100 | > 100 | > 100 |
| CCCCCCCCCCCCCCCCOCCCOP(=O)(O)CO[C@H](CO)Cn1ccc(N)nc1=O [CMX001] | 82.1 | 6.6 | 60 | 91.5 | 12.4 | 70.5 | 43.1 | > 100 | 14.6 | 68.6 | 62 | 19 | 21.7 | 95.5 | 37.9 | 48.6 | 73.3 | 7 | 10 | 20.9 |
